PubChem BioAssay (NCI)
“And” between values parts separate entries of the source, which are not always exact repeats. Equal values may be shown once.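 Protocol summary: plate cells (96-well), add compound at 5 concentrations, incubate 48 h, interpolate endpoints linearly. GI50: concentration for 50% inhibition of growth. TGI marks complete inhibition of growth.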

Tests used:
Experiment in all cases: inhibition of tumour cell growth, NCI panel, 48 h
SW-620 colon = system: SW-620 colon
HOP-62 NSCLC = system: HOP-62 NSCLC
TK-10 renal = system: TK-10 renal
M14 melanoma = system: M14 melanoma
HS 578T breast = system: HS 578T breast
HCT-116 colon = system: HCT-116 colon
MOLT-4 leukemia = system: MOLT-4 leukemia
CCRF-CEM leukemia = system: CCRF-CEM leukemia
K-562 leukemia = system: K-562 leukemia
HCT-15 colon = system: HCT-15 colon

Row | Compound | GI50 (SW-620 colon) | TGI (SW-620 colon) | GI50 (HOP-62 NSCLC) | TGI (HOP-62 NSCLC) | GI50 (TK-10 renal) | TGI (TK-10 renal) | GI50 (M14 melanoma) | TGI (M14 melanoma) | GI50 (HS 578T breast) | TGI (HS 578T breast) | GI50 (HCT-116 colon) | TGI (HCT-116 colon) | GI50 (MOLT-4 leukemia) | TGI (MOLT-4 leukemia) | GI50 (CCRF-CEM leukemia) | TGI (CCRF-CEM leukemia) | GI50 (K-562 leukemia) | TGI (K-562 leukemia) | GI50 (HCT-15 colon) | TGI (HCT-15 colon)
1 | O=C(c1ccccc1)c1c(NCC(O)CN2CCCC2)n(Cc2ccccc2)c(=O)n(Cc2ccccc2)c1=O (stereo unspecified) | 15.6 µM | 30.4 µM | 21.7 µM | 49.5 µM | 19.3 µM | 41.6 µM | 17.5 µM | 33.9 µM | 16.2 µM | 37.8 µM | 15 µM | 28.2 µM | 19.7 µM | > 100 µM | 24.3 µM | 63.6 µM | 23.9 µM | 99.1 µM | 17 µM | 32.2 µM
2 | Cc1[nH]ncc1-c1cc2nc(C3CC4CCN3CC4)[nH]c(=O)c2s1 (stereo unspecified) | 2.65 µM | > 100 µM | 2.83 µM | > 100 µM | 1.9 µM | > 100 µM | 4.49 µM | 83.5 µM | 3.87 µM | > 100 µM | 1.16 µM | > 100 µM | 5.52 µM | > 100 µM | 2.36 µM | > 100 µM | 6.54 µM | > 100 µM | 2.44 µM | > 100 µM
3 | COc1ccc(-c2[nH]ncc2-c2cc3c(c(OC)c2)OCC(=O)N3)cc1 | 0.356 µM | > 54 µM | 0.544 µM | 80.3 µM | 7.59 µM | > 100 µM | 0.384 µM | > 89.2 µM | 0.298 µM | 2.24 µM | 0.403 µM | > 100 µM | 0.528 µM | > 34.6 µM | 0.398 µM | > 100 µM | 0.309 µM | > 100 µM | 0.457 µM | > 100 µM
4 | O=C(/C=C/c1ccc(B(O)O)cc1)/C=C/c1ccc(B(O)O)cc1 | 1.79 µM | 4.02 µM | 10.3 µM | 22 µM | 5.12 µM | 17.3 µM | 2.23 µM | 5.9 µM | 1.54 µM | 5.57 µM | 0.343 µM | 1.21 µM | 3.59 µM | 66.3 µM | 2.86 µM | 9.58 µM | 3.1 µM | > 100 µM | 2.67 µM | 10.7 µM
5 | CCCN(CCC)CCCNCc1cc(I)cc(C)c1O | 14.3 µM | 27.4 µM | 13.4 µM | 26.2 µM | 16.1 µM | 30.6 µM | 12.8 µM | 25.4 µM | 11.1 µM | 24.6 µM | 7.9 µM | 20.5 µM | 10.7 µM | 23.4 µM | 1.28 µM | 6.06 µM | 6.12 µM | 19.4 µM | 15.3 µM | 29.7 µM
6 | Cc1ccc(C(=O)N(CCCN)[C@@H](c2nc3cc(Cl)ccc3c(=O)n2Cc2ccccc2)C(C)C)cc1 | < 0.01 µM | 1.28 µM and 1.61 µM | < 0.01 µM and 0.01 µM | 2.07 µM and 2.09 µM |  | 1.71 µM and 2.81 µM | < 0.01 µM | < 0.01 µM | < 0.01 µM |  | < 0.01 µM | 1.41 µM and 1.26 µM | < 0.01 µM | 3.87 µM and 1.45 µM | < 0.01 µM | 3.3 µM and 1.46 µM | < 0.01 µM | 1.67 µM and 1.23 µM | 0.0159 µM and < 0.01 µM | 1.92 µM and 1.44 µM
7 | CN1CCc2cc3c(cc2C1O)OCO3 (stereo unspecified) | 16.6 µM and > 100 µM | 33.8 µM and > 100 µM | 18 µM and > 100 µM | 36.2 µM and > 100 µM | 19.7 µM and > 100 µM | 39.6 µM and > 100 µM | 16.7 µM and > 100 µM | 37.8 µM and > 100 µM |  | 82.3 µM and > 100 µM | 19.2 µM and > 100 µM | 36.2 µM and > 100 µM | 23.4 µM and > 100 µM | 81.6 µM and > 100 µM | 10.1 µM and > 100 µM | > 100 µM |  | > 100 µM | 20.8 µM and > 100 µM | 45 µM and > 100 µM
8 | CC(C)[C@](O)(c1ccc2cc(OC(F)F)c(OC(F)F)cc2c1)c1cn[nH]n1 | 21 µM and 18.5 µM | 44.9 µM and 38.5 µM | 17.2 µM and 15.6 µM | 36.9 µM and 31.5 µM | 17 µM and 12.6 µM | 38.4 µM and 35.7 µM | 18.5 µM and 15.4 µM | 42.2 µM and 32.6 µM | 22.1 µM and 15.4 µM | 82.4 µM and 51.2 µM | 15.2 µM and 15 µM | 31.3 µM and 30.2 µM | 30.1 µM and 17.1 µM | 82.7 µM and 62 µM | 23.8 µM and 24.2 µM | 59 µM and 85.1 µM | 20.1 µM and 24.8 µM | 66.3 µM and 80.7 µM | 13.9 µM and 14.4 µM | 31.5 µM and 31.8 µM
9 | Cc1c2cnccc2c(C)c2c1c1cc(C3OCCCO3)ccc1n2C | 0.205 µM | 1.64 µM | 0.286 µM | 1.82 µM | 0.541 µM | 4.14 µM | 0.317 µM | 1.16 µM | 0.416 µM | 2.83 µM | 0.0472 µM | 1.05 µM | 0.332 µM | 1.74 µM | 0.291 µM | 3.81 µM | 0.418 µM | 2.69 µM | 0.281 µM | 1.4 µM
10 | CCSc1nnc2c(-c3ccccc3)n[nH]c2n1 |  | > 100 µM |  | > 100 µM |  | > 100 µM |  | > 100 µM |  | > 100 µM |  | > 100 µM |  | > 100 µM |  | > 100 µM |  | > 100 µM |  | > 100 µM
11 | CC(=O)C1=C(O)C=C2Oc3c(C(=O)/C=C/c4cc(C(F)(F)F)cc(C(F)(F)F)c4)c(O)c(C)c(O)c3[C@]2(C)C1=O | 0.553 µM | 2.19 µM | 1.18 µM | 5.17 µM | 0.587 µM | 8.23 µM | 0.612 µM | 2.31 µM | 0.861 µM | 5.4 µM | 0.401 µM | 1.02 µM | 0.437 µM | 15 µM | 0.487 µM | 3.82 µM | 0.498 µM | 15 µM | 0.462 µM | 2.54 µM
12 | C[n+]1c(/C=C\C=C\N2CCCCC2)sc2ccccc21 | 0.513 µM | 14.9 µM | 2.26 µM | > 38.2 µM | 2.19 µM | 16.5 µM | 2.82 µM | > 35.2 µM | 1.11 µM | 22.5 µM | 0.308 µM | > 32.1 µM | 0.401 µM | 9.42 µM | 0.299 µM | > 40.5 µM | 0.172 µM | 12.7 µM | 10.9 µM | 49.2 µM
13 | COc1cc2c(cc1OC)C13CCN4C=C5CCOC6CC(=O)N2C1C6C5CC43 (stereo unspecified) |  | > 100 µM |  | > 100 µM |  | > 100 µM |  | > 100 µM |  | > 100 µM |  | > 100 µM |  | > 100 µM |  | > 100 µM |  | > 100 µM |  | > 100 µM
